Columns and labels:
[1] = hygroscopicity of the drug substance (statement); assay type: physicochemical; conditions: background statement
[2] = dynamic vapour sorption (DVS): water absorption or loss as a function of relative humidity; assay type: physicochemical; conditions: for change in mass in % (sorption) / change in mass in % (desorption): 25° C., 9.5 mg sample, 4 hours; for change in mass in % (sorption): cycle 0-95%; for change in mass in % (desorption): cycle 40-0
Source text: A clear characterisation of this property is achieved by means of isothermal measurements over predetermined time intervals and predetermined relative humidity using dynamic vapour sorption (DVS from the company Surface Measurement Systems LTD, Marlow, Buckinghamshire, UK). […] The following cycles of changes in relative humidity are shown: 40-0; 0-95% relative humidity: The measurement error of this sorption method based on thermogravimetry is about 0.1%.

Row | SMILES | hygroscopicity [1] | water absorption or loss ([2]; above 40% relative humidity) | water uptake compared with the hemifumarate ([2]; below 40% relative humidity) | change in mass in % (sorption) ([2]; relative humidity 0%) | change in mass in % (desorption) ([2]; relative humidity 0%) | change in mass in % (sorption) ([2]; relative humidity 10%) | change in mass in % (desorption) ([2]; relative humidity 10%) | change in mass in % (sorption) ([2]; relative humidity 20%) | change in mass in % (desorption) ([2]; relative humidity 20%) | change in mass in % (sorption) ([2]; relative humidity 30%) | change in mass in % (desorption) ([2]; relative humidity 30%) | change in mass in % (sorption) ([2]; relative humidity 40%) | change in mass in % (desorption) ([2]; relative humidity 40%) | change in mass in % (sorption) ([2]; relative humidity 50%) | change in mass in % (sorption) ([2]; relative humidity 60%) | change in mass in % (sorption) ([2]; relative humidity 70%) | change in mass in % (sorption) ([2]; relative humidity 80%) | change in mass in % (sorption) ([2]; relative humidity 90%) | change in mass in % (sorption) ([2]; relative humidity 95%)
1 | COCCCOc1cc(C[C@@H](C[C@H](N)[C@@H](O)C[C@H](C(=O)NCC(C)(C)C(N)=O)C(C)C)C(C)C)ccc1OC [aliskiren, 2(S),4(S),5(S),7(S)—N-(3-amino-2,2-dimethyl-3-oxopropyl)-2,7-di(1-methylethyl)-4-hydroxy-5-amino-8-[4-methoxy-3-(3-methoxy-propoxy)phenyl]-octanamide] | highly hygroscopic |  |  |  |  |  |  |  |  |  |  |  |  |  |  |  |  |  | 
2 | COCCCOc1cc(C[C@@H](C[C@H](N)[C@@H](O)C[C@H](C(=O)NCC(C)(C)C(N)=O)C(C)C)C(C)C)ccc1OC.O=S(=O)(O)O [hydrogen sulfate salt of aliskiren] |  | significant water absorption or loss | does not take up as much water as the hemifumarate | 0.00% | 0.00% | 0.46% | 0.88% | 0.84% | 1.25% | 1.31% | 1.67% | 1.98% | 2.20% | 3.39% | 7.07% | 8.88% | 13.43% | 25.83% | 40.62%
